Source: ChEMBL document CHEMBL1201862, “PubChem BioAssay data set” (2004)
The source made the active and inactive calls.

What was measured:
[1] = biological target: T1, Sentrin-specific protease 8 (Homo sapiens, UniProt Q96LD8); experiment: inhibition of human SENP8 cleavage activity – biochemical, luminescence, SAR follow-up (AID 504501); assay type: functional
T1 sequence (Q96LD8 whole entry): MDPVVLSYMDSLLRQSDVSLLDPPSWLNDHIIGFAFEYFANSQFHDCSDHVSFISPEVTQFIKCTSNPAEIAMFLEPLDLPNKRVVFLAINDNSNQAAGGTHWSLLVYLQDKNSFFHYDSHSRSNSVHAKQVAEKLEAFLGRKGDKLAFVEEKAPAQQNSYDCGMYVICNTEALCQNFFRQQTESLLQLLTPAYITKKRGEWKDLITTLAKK

[2] = Luminescence-based cell-based high throughput dose response assay to identify activators of the DAF-12 from the parasite S. stercoralis (ssDAF-12).; assay type: functional
[3] = biological target: T2, Heat shock factor protein 1 (Mus musculus, UniProt P38532); experiment: decrease of HSF1-responsive luciferase luminescence – cell-based, NIH3T3, dose retest, confirmation (AID 2382); assay type: functional;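 further: NIH3T3 fibroblasts with HSF1-driven luciferase reporter stressed by proteasome inhibitor MG132; luminescence from HSF1-driven luciferase expression after 8 hours of MG132 stress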
T2 sequence (P38532 whole entry): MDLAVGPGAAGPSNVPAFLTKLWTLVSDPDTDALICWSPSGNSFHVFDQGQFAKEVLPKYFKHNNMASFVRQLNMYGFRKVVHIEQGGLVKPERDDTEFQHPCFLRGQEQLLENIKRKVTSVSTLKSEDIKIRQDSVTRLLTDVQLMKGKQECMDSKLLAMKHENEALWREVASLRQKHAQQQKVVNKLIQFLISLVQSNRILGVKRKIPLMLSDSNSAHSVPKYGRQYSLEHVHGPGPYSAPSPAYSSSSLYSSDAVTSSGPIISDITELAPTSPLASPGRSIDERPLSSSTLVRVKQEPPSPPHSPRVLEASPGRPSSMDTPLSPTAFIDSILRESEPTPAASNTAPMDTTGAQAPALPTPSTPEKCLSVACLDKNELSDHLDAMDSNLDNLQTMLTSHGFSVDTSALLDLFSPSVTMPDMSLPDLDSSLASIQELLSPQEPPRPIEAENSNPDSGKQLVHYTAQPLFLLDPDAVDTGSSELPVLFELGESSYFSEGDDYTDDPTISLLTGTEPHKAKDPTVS

[4] = biological target: Melanocortin receptor 4 (Homo sapiens, UniProt P32245); experiment: inhibitors of MC4R cAMP signaling – cell-based, TR-FRET, biased antagonists, dose response (AID 602298); assay type: functional;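 further: antagonist potency against agonist-stimulated cAMP production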
Melanocortin receptor 4, sequence (P32245 whole entry): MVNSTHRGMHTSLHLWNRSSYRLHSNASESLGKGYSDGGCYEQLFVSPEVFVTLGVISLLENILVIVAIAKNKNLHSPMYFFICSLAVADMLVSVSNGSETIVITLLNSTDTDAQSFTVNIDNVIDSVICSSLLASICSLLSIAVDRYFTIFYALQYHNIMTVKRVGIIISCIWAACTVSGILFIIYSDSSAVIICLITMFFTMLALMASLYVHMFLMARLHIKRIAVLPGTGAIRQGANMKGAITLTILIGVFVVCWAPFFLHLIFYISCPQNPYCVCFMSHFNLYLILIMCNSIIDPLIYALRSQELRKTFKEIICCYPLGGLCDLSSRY

[5] = biological target: T3, Zinc finger protein mex-5 (Caenorhabditis elegans, UniProt Q9XUB2); experiment: potency of MEX-5 RNA-binding blockers – biochemical, C. elegans, fluorescence polarization, dose response (AID 1960)
T3 sequence (Q9XUB2 whole entry): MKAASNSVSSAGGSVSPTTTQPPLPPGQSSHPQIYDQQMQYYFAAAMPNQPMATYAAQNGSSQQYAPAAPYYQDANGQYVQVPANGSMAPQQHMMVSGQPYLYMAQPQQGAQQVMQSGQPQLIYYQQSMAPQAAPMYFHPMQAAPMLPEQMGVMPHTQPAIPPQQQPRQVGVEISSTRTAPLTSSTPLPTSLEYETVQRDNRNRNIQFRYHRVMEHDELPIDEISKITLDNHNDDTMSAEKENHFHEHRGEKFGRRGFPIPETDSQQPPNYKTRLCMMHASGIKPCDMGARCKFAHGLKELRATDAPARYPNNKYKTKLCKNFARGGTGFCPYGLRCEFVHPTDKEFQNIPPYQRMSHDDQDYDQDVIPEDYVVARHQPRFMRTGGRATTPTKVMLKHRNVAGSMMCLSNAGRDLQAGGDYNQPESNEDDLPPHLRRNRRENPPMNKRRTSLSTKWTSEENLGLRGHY

[6] = biological target: T4, Hexokinase HKDC1 (Homo sapiens, UniProt Q2TB90); experiment: SAR analysis of small molecule inhibitors of hexokinase domain containing I (HKDC1). [Related pubchem assays (depositor defined):AID493160, AID493190]; assay type: functional
T4 sequence (Q2TB90 whole entry): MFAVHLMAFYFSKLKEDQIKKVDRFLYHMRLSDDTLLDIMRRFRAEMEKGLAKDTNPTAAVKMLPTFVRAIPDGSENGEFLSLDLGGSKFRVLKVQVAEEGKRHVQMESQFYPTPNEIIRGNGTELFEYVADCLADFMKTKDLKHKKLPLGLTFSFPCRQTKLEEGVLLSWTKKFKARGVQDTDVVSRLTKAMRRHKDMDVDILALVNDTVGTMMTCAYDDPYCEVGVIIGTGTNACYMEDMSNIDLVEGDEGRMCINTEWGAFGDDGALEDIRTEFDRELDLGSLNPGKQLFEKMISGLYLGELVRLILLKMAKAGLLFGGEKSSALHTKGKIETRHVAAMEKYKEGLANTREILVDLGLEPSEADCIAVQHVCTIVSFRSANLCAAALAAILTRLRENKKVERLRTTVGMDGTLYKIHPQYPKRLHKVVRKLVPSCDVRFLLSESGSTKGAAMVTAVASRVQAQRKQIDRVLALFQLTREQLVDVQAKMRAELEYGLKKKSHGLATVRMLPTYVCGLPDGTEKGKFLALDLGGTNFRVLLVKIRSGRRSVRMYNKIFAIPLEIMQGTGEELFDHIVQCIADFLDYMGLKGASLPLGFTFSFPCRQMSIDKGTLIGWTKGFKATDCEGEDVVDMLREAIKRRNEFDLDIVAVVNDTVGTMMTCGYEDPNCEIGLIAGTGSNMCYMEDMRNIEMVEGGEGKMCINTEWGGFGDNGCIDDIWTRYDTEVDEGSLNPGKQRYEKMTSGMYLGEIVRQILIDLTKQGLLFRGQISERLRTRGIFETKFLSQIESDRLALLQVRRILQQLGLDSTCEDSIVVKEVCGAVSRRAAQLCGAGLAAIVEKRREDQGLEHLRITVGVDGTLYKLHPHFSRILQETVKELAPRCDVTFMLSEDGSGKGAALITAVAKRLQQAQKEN

[7] = viability of BHK-21 cells – cell-based, secondary screen, cytotoxicity control for flavivirus guanylyltransferase probe project (AID 624078); assay type: functional
[8] = biological target: T5, Caspase-6 (Homo sapiens, UniProt P55212); experiment: inhibition of CASP6 peptide cleavage – biochemical, VEID-R110 fluorescence, cherry-pick, dose response (AID 720632)
T5 sequence (P55212 whole entry): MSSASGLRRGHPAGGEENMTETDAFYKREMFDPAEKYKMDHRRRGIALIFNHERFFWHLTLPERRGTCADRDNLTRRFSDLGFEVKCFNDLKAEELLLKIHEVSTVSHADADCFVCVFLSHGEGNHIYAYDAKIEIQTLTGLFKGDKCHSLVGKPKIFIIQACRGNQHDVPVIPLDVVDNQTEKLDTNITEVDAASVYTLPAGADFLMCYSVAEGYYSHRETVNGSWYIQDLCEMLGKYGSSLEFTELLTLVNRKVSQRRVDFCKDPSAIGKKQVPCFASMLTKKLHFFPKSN

Oc1ccccc1/C=C/c1noc(-c2ccccc2O)n1
IC50 [1]: > 99 µM (inactive) | IC50 [2]: > 67.6 µM (inactive)

Cc1nn(-c2ccccc2)c(Cl)c1CN(C(=O)CCl)c1ccc(Cl)cc1
EC50 [3]: 1.57 µM (active) | IC50 [4]: > 64.6 µM (inactive)

O=C(O)CSc1cc(NS(=O)(=O)c2ccc(Cl)cc2)c2ccccc2c1O
EC50 [5]: 6.3 µM (active) | IC50 [6]: 8.9 µM (active) | CC50 [7]: 7.78 µM (active)

COc1ccccc1N1C(=O)Cc2ccccc2C1=O
AC50 [8]: 24.2 µM (active)
